Among the data in patent US10793550B2, “4-piperidin-n-(pyrimidin-4-yl)chroman-7-sulfonamide derivatives as sodium channel inhibitors” (GENENTECH, INC., priority 2017, dated 2020) are IC50 and clearance values, retold here.

One series concerns the target T1, hNav1.7 (Homo sapiens, UniProt Q15858).
T1 construct: expressed in transfected cells
Put plainly: Tritiated compound competitive binding to membranes from cells expressing hNav1.7 and the β1 subunit. The conditions noted are these: competition with 100 pM [3H]compound, 18 h, room temperature; "this model or another representative model of inhibition"; read-out: Nav1.7 inhib. in vitro. The protocol:
Example 5: Tritiated Compound Binding to Membranes Isolated from Cells that Heterologously Express hNav1.7 and the β1 Subunit
Preparation of membranes containing recombinantly expressed sodium channels: Frozen recombinant cell pellets were thawed on ice and diluted to 4 times the cell pellet weight with ice cold 50 mM Tris HCl, pH 7.4 buffer. The cell suspensions were homogenized on ice using a motorized glass dounce homogeniser. Homogenates were further diluted 8.4 times with ice cold 50 mM Tris HCl, pH 7.4 buffer and then centrifuged at 200×g at 4° C. for 15 min. The supernatants were collected and centrifuged at 10000×g at 4° C. for 50 min. The pellets were then re-suspended in 100 mM NaCl, 20 mM Tris HCl, pH 7.4 buffer containing 1% v/v protease inhibitors (Calbiochem) and re-homogenized on ice. The homogenized membranes were then processed through a syringe equipped with a 26 gauge needle. Protein concentrations were determined by Bradford Assay and the membranes were stored at −80° C.
Radioligand Binding Studies:
Saturation experiments. A competitive NaV1.7 inhibitor having a methyl group was tritiated. Three tritiums were incorporated in place of methyl hydrogens to generate [^3H]compound. Binding of this radioligand was performed in 5 mL borosilicate glass test tubes at room temperature. Binding was initiated by adding membranes to increasing concentrations of [^3H]compound in 100 mM NaCl, 20 mM Tris HCl, pH 7.4 buffer containing 0.01% w/v bovine serum albumin (BSA) for 18h. Non-specific binding was determined in the presence of 1 μM unlabeled compound. After 18h, the reactants were filtered through GF/C glass fiber filters presoaked in 0.5% w/v polyethylene imine. Filters were washed with 15 mL ice cold 100 mM NaCl, 20 mM Tris HCl, pH7.4 buffer containing 0.25% BSA to separate bound from free ligand. [^3H]compound bound to filters was quantified by liquid scintillation counting.
Competitive Binding Experiments:
Binding reactions were performed in 96-well polypropylene plates at room temperature for 18h. In 360 μL, membranes were incubated with 100 pM [^3H]compound and increasing concentrations of Test Compound. Non-specific binding was defined in the presence of 1 μM unlabeled compound. Reactions were transferred and filtered through 96-well glass fiber/C filter plates presoaked with 0.5% polyethylene imine. The filtered reactions were washed 5 times with 200 μL ice cold buffer containing 0.25% BSA. Bound radioactivity was determined by liquid scintillation counting.
Data Analysis: For saturation experiments, non-specific binding was subtracted from total binding to provide specific binding and these values were recalculated in terms of pmol ligand bound per mg protein. Saturation curves were constructed and dissociation constants were calculated using the single site ligand binding model: Beq=(Bmax*X)/(X+Kd), where Beq is the amount of ligand bound at equilibrium, Bmax is the maximum receptor density, Kd is the dissociation constant for the ligand, and X is the free ligand concentration. For competition studies percent inhibition was determined and IC50 values were calculated using a 4 parameter logistic model (% inhibition=(A+((B−A)/(1+((x/C)^D)))) using XLfit, where A and B are the maximal and minimum inhibition respectively, C is the IC50 concentration and D is the (Hill) slope.

The nature of series [1]: In vivo pharmacokinetic experiments (compound clearance in rats). The conditions noted are these: rat; male rats, IV administration, plasma clearance; read-out: PK (CLp, rat). The method, then:
Example 6: In Vivo Pharmacokinetic Experiments (Compound Clearance in Rats)
In vivo clearance (CLp) of certain compounds was measured in order to evaluate whether these compounds were likely to be good candidates for development. Male rats were housed at controlled temperature and humidity in an alternating 12 hr light/dark cycle with access to food and water ad libitum. All in vivo studies were performed in accordance with Institutional Animal Care and Use Committee guidelines and in harmony with the Guide for Laboratory Animal Care and Use. Rats were administered IV administration of compound. Plasma was harvested from blood samples that were collected from each animal at various timepoints following the administration of compound. Plasma concentration of compound was determined by mass spectrometer, and pharmacokinetic analysis was performed using non-compartmental method using Phoenix WinNonlin. Following oral administration, percent bioavailability was determined for each animal by dividing the dose-normalized area under the plasma concentration-time curve from time 0 to the last measured concentration (AUC0-tlast) obtained following each oral dose by the mean dose-normalized AUC0-tlast of the animals dosed by IV injection.
CLp values above about 40 mL/min/kg in Example 6 are considered to be highly cleared from the body after administration of a compound to a subject, meaning that the exposure may be insufficient to be treated for a disease or disorder as provided herein.

T1 sequence (Q15858 whole entry): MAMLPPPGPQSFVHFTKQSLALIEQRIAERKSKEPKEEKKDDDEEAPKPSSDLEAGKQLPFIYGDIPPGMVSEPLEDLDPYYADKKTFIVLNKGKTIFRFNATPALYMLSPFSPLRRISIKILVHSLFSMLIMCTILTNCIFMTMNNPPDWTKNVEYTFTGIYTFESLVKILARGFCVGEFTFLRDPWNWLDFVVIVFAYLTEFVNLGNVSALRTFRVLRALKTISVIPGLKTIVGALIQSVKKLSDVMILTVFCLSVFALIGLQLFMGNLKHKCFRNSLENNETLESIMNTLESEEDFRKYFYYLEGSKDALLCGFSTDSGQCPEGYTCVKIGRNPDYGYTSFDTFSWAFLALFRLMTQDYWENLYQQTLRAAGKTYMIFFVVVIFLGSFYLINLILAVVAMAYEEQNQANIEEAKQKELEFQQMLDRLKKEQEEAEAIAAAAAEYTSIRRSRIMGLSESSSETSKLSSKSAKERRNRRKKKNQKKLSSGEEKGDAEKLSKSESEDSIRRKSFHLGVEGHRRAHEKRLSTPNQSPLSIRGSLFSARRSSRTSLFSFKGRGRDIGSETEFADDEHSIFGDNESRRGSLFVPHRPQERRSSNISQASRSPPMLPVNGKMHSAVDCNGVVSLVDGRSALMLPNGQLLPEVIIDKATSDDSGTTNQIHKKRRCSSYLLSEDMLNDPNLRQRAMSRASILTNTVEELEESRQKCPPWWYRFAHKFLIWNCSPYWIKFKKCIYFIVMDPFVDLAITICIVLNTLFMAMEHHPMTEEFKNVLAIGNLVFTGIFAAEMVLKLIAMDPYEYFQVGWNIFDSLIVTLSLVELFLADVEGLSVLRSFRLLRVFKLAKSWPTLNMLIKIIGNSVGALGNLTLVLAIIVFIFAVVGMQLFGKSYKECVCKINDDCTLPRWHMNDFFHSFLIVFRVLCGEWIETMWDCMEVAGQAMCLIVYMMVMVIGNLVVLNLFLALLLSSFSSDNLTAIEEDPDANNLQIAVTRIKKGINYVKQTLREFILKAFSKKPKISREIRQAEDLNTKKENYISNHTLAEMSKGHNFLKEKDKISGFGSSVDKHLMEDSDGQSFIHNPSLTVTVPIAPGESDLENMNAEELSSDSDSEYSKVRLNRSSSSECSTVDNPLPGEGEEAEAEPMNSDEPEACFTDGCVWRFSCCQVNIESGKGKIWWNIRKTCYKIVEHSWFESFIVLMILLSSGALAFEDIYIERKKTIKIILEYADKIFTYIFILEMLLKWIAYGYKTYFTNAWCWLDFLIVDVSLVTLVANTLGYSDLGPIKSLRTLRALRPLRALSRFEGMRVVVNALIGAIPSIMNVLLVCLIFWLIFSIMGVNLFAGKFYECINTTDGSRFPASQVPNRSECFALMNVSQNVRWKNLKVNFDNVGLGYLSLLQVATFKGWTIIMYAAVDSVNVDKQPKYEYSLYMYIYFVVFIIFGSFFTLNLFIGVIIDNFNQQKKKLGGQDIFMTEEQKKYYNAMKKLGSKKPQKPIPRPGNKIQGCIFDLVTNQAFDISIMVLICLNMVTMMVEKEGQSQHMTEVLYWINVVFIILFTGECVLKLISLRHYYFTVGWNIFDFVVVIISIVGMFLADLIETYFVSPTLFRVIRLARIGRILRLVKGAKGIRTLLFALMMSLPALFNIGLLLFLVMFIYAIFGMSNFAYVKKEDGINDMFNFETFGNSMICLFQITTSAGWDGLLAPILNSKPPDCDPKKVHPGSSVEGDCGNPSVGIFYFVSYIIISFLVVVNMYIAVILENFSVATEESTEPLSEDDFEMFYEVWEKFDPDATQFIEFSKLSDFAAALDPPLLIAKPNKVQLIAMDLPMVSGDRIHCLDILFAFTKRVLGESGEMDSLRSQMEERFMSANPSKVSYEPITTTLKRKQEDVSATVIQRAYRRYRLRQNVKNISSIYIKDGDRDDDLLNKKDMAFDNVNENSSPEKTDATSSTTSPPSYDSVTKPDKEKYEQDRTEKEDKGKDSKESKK
T1 sequence (Q07699 19-218 partner): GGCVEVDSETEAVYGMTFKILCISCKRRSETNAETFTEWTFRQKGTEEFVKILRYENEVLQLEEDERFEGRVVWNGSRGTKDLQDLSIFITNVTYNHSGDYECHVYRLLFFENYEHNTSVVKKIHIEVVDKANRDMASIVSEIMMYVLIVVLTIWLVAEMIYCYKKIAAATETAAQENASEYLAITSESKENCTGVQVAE

Regarding `O=S(=O)(Nc1ncns1)c1ccc2c(c1)OCC[C@@H]2N1CC[C@@](O)(C(F)(F)F)C[C@H]1c1ccc(F)cc1` [A], at hNav1.7, the IC50 came out at 1.1 nM. Further, in series [1], the clearance was above 60 mL/min/kg.
For the compound `O=S(=O)(Nc1ncns1)c1cc2c(cc1F)[C@@H](N1CC[C@@H](C(F)(F)F)C[C@H]1c1ccccn1)CCO2` [B], the IC50 on hNav1.7 was below 0.5 nM. Moreover, the clearance in series [1] was above 60 mL/min/kg.
`O=S(=O)(Nc1ncns1)c1ccc2c(c1)OCC[C@@H]2N1CC[C@@H](C(F)(F)F)C[C@H]1c1ccc(F)cc1` [C]: in series [1], the clearance is above 60 mL/min/kg.
On to `N#C[C@H]1CCN([C@H]2CCOc3cc(S(=O)(=O)Nc4ncns4)ccc32)C(c2ccc(F)cc2)C1` (stereo partly drawn) [D], for which the clearance in series [1] is above 60 mL/min/kg.
As to `N#C[C@H]1CCN([C@H]2CCOc3cc(S(=O)(=O)Nc4ncns4)ccc32)[C@@H](c2ccc(F)cc2)C1` [D], at hNav1.7, the IC50 was determined as 11 nM.
On to `O=S(=O)(Nc1ncns1)c1ccc2c(c1)OCC[C@@H]2N1CC[C@H](C(F)F)C[C@@H]1c1ccc(F)cc1` [E], for which the IC50 on hNav1.7 was found to be 2.6 nM. For the same compound, the clearance in series [1] was above 60 mL/min/kg.
As to `O=S(=O)(Nc1ccncn1)c1cc2c(cc1F)[C@@H](N1CC[C@@H](C(F)(F)F)C[C@H]1c1ccccn1)CCO2` [Example 1, (S)-6-fluoro-4-((2S,4R)-2-(pyridin-2-yl)-4-(trifluoromethyl)piperidin-1-yl)-N-(pyrimidin-4-yl)chroman-7-sulfonamide], the clearance in series [1] is below 30 mL/min/kg.
Consider `O=S(=O)(Nc1ccncn1)c1cc2c(cc1F)[C@@H](N1CC[C@@](O)(C(F)(F)F)C[C@H]1c1ccc(F)cc1)CCO2` [Example 2, (S)-6-fluoro-4-((2S,4S)-2-(4-fluorophenyl)-4-hydroxy-4-(trifluoromethyl)piperidin-1-yl)-N-(pyrimidin-4-yl)chroman-7-sulfonamide], for which the IC50 on hNav1.7 worked out at 0.5 nM. The clearance in series [1] is below 30 mL/min/kg.
The matching figures for `O=S(=O)(Nc1ccncn1)c1cc2c(cc1F)[C@@H](N1CC[C@@H](OC(F)F)C[C@H]1c1ccc(F)cc1)CCO2` [Example 3, (S)-4-((2S,4R)-4-(difluoromethoxy)-2-(4-fluorophenyl)piperidin-1-yl)-6-fluoro-N-(pyrimidin-4-yl)chroman-7-sulfonamide]: 2.2 nM and below 30 mL/min/kg.
For `C[C@@H]1C[C@H](c2cccc(C(F)(F)F)c2)CCN1[C@H]1CCOc2cc(S(=O)(=O)Nc3ccncn3)c(F)cc21` [Example 4, (S)-6-fluoro-4-((2R,4R)-2-methyl-4-(3-(trifluoromethyl)phenyl)piperidin-1-yl)-N-(pyrimidin-4-yl)chroman-7-sulfonamide] the same measures were 3.4 nM and below 30 mL/min/kg.
The matching figures for `CS(=O)(=O)[C@@H]1CCN([C@H]2CCOc3cc(S(=O)(=O)Nc4ncns4)ccc32)[C@H](c2ccc(F)cc2)C1` [F]: 8.8 nM and above 60 mL/min/kg.
